In series [1] the test system is zidovudine-resistant primary clinical HIV-1 isolates. Briefly: p24 drug susceptibility assay, NRTI-/zidovudine-resistant primary clinical HIV-1 isolates in PBMC. The series is classed as cell-based. As to the method: Viruses. […] The HIV-1 strains HTLVIIIB (wildtype RT, NRTI-sensitive, NNRTI-sensitive), A17 (Y181 C mutant, NNRTI-resistant), A17-variant (Y181C+K103N mutant, NNRTI-resistant), and RT-MDR (M41 L, V106N, T215Y; NRTI-resistant, NNRTI-resistant) were also obtained from the AIDS Research and Reference Reagent Program, NIAID.
Antiviral susceptibility assays. Phenotypic drug susceptibility studies of HIV-1 isolates and strains were performed by measuring the production of the p24 gag protein in peripheral blood mononuclear cells (PBMC) from seronegative healthy volunteers in the presence of increasing concentrations of the anti-HIV agent using the quantitative Coulter HIV-1 p24 antigen ezyme immunoassay (EIA) and HIV-1 p24 Antigen Kinetic Standard (Beckman Coulter), as previously described (Uckun, 1998, Antimicrobial Agents and Chemotherapy 37(4): 835-38). Informed consent was obtained from the blood donors according to DHHS guidelines using consent forms approved by the Institutional Review Board. In brief, PBMC were cultured for 72 h in RPMI 1640 medium (Gibco) supplemented with 20% (vol/vol) heat-inactivated fetal bovine serum, 5% human interleukin-2 (Zeptometrix), 2 mM L-glutamine, 25 mM HEPES, 2 g/L NaHCO3, 100 U/ml penicillin/streptomycin (Gibco), 50 μg/ml gentamicin (Gibco), and 5 μg/ml phytohemagglutinin-P (PHA-P) (Sigma) for 24-72 hours prior to exposure to HIV at a multiplicity of infection of 0.001-0.1 during a 1-h adsorbtion period at 37±1° C. in a humidified 5-7% CO2 atmosphere. Subsequently, cells were cultured in 96-well microtiter plates (100 μl/well; 2×10^6 cells/ml, triplicate wells) in the presence of the anti-HIV agents at 6-7 different concentrations ranging from 0.0001 μM to 100 μM, and 25 μL aliquots of culture supernatants were removed from the wells on day 6 after infection for p24 EIA, as previously described (Uckun, 1998, Antimicrobial Agents and Chemotherapy, 37(4):835-38). Controls included uninfected and untreated cells (background control) and infected but untreated (virus control) cells. The p24 EIA utilizes a murine monoclonal antibody to HIV core protein used to coat microwell strips to which the antigen present in the test culture supernatant samples binds. Percent inhibition of viral replication was calculated by comparing the p24 values from the test substance-treated infected cells with p24 values from untreated infected cells (i.e., virus controls). The IC50 values were determined using the Statview statistics program (SAS Institute, Inc.). In parallel, the effects of various treatments on cell viability were also examined as previously described (Uckun, 1998, Antimicrobial Agents and Chemotherapy, 42:383-388). In brief, noninfected PBMC were treated with each compound for 5 days under identical experimental conditions. A microculture tetrazolium assay (MTA) was performed to quantitate cellular proliferation (Uckun, 1998, Antimicrobial Agents and Chemotherapy, 42:383-388).
Phenotypic drug susceptibility studies of HIV-1 isolates and strains were performed by measuring the production of the p24 gag protein in peripheral blood mononuclear cells (PBMC) from seronegative healthy volunteers in the presence of increasing concentrations of the anti-HIV agent using the quantitative Coulter HIV-1 p24 antigen enzyme immunoassay (EIA) and HIV-1 p24 Antigen Kinetic Standard (Beckman Coulter), as previously described. StatView was used in the calculation of the IC50 values from each set of triplicate wells using the linearized form of an exponential equation (lnY=lnb0+b1X; where Y=% inhibition, X=drug concentration). The inhibition constants were log10 transformed to homogenize the variances within each group. […] P-values below 0.05 were deemed significant (JMP Software, SAS).

The test system of series [2] is zidovudine-resistant primary clinical HIV-1 isolates in CD4-expressing HeLa cell line HT4-6C. Put plainly: Syncytial focus (plaque) formation assay in HT4-6C cells. Format: cell-based. The following applies: Human immunodeficiency virus 1, HeLa. The protocol:
Plaque formation assays. The syncytial focus (plaque) assay permits quantitation of infectivity of HIV. In brief, a CD4-expressing HeLa cell line (HT4-6C) (AIDS Research and Reference Reagent Program, NIAID) is cultured in 24-well tissue culture plates at 2.5-3.0×10^4 cells/ml in the presence of virus inoculum (100 plaque forming units) and several concentrations of the antiviral agent. The virus was added first for a 2 hr incubation time prior to addition of the antiviral agents. […] Percent inhibition of plaque formation was calculated by comparing the plaque numbers from the test substance-treated infected cells with the plaque numbers from untreated infected cells (i.e., virus controls).

Series [3] can be described thus: Pharmacokinetics after intravenous or oral administration. Format: in vivo, mice. The following applies: intravenous administration.

Where two headings read alike, the source gives them in different places.

For `Cc1cn([C@H]2C[C@H](N=[N+]=[N-])[C@@H](CO)O2)c(=O)[nH]c1=O` [AZT, 3′-azido-3′-deoxythymidine], the IC50 (usually the concentration needed to halve the response being measured) in series [1] (Human immunodeficiency virus 1, PBMC, isolate 92BR019 (D67N, L214F, T215D, K219Q), PBMC) is 0.2 µM; in series [1] (Human immunodeficiency virus 1, PBMC, isolate C140 (M41L, M184V, T215Y), PBMC), 0.1 µM; in series [1] (Human immunodeficiency virus 1, PBMC, isolate C140, PBMC, p24) it was 0.1 µM; in series [1] (Human immunodeficiency virus 1, PBMC, isolate C467-4 (K20R, D67N, K70R, Y188L, T215F, K219Q), PBMC) it was 3.2 µM; in series [1] (Human immunodeficiency virus 1, PBMC, isolate G190-6, PBMC, p24), > 3.2 µM; in series [1] (Human immunodeficiency virus 1, PBMC, isolate G691-2 (mutations N.D.), PBMC), 2.6 µM. Further, the half-inhibitory concentration (IC50) was 1.8 µM in series [1] (Human immunodeficiency virus 1, PBMC, isolate G704-2, PBMC, p24); > 3.2 µM in series [1] (Human immunodeficiency virus 1, PBMC, isolate G780-1 (M41L, D67N, K70R, T215F, K219Q), PBMC); > 3.2 µM in series [1] (Human immunodeficiency virus 1, PBMC, isolate G780-1, PBMC, p24); > 3.2 µM in series [1] (Human immunodeficiency virus 1, PBMC, isolate G890-1 (K20R, M41L, D67N, T69N, K70R, L210W, T215Y), PBMC); > 3.2 µM in series [1] (Human immunodeficiency virus 1, PBMC, isolate G890-1, PBMC, p24); 1.8 µM in series [1] (Human immunodeficiency virus 1, PBMC, isolate P798-1 (M41L, T215Y), PBMC). Further, the concentration for half-maximal inhibition (IC50) in series [1] (Human immunodeficiency virus 1, PBMC, isolate Q252-2 (M41L, L210W, T215Y), PBMC) is 1.7 µM; in series [1] (Human immunodeficiency virus 1, PBMC, isolate R416-10 (M41L, T215Y), PBMC), 0.3 µM; in series [1] (Human immunodeficiency virus 1, PBMC, isolate S159-2 (M41L, K103N, T215Y), PBMC) it was 0.7 µM; in series [1] (Human immunodeficiency virus 1, PBMC, isolate S762-4 (M41L, T215Y), PBMC), 1.2 µM; in series [1] (Human immunodeficiency virus 1, PBMC, isolate T156-3 (M41L, E44D, D67N, T69D, L210W, T215Y), PBMC), > 3.2 µM; in series [1] (Human immunodeficiency virus 1, PBMC, isolate T156-3, PBMC, p24), > 3.2 µM. For the same compound, the IC50 in series [1] (Human immunodeficiency virus 1, PBMC, isolate X165-8 (D67N, T69N, K70R, K103N, Y181C, T215F, K219E), PBMC) came out at 0.9 µM; in series [1] (Human immunodeficiency virus 1, PBMC, isolate X165-9 (K20R, D67N, K103N, T215Y), PBMC) it was 0.9 µM; in series [1] (Human immunodeficiency virus 1, PBMC, isolate X267-1 (L74V), PBMC, p24), 0.6 µM; in series [1] (Human immunodeficiency virus 1, PBMC, isolate X267-1 (M41L, L74V, L210W, T215Y), PBMC) it was 0.6 µM; in series [1] (Human immunodeficiency virus 1, PBMC, isolate X267-2 (M41L, T215Y), PBMC) it was 0.4 µM; in series [1] (Human immunodeficiency virus 1, PBMC, isolate X267-5 (M41L, F116S, T215Y), PBMC), 0.6 µM. Besides, the concentration for half-maximal inhibition (IC50) was 1.5 µM in series [1] (Human immunodeficiency virus 1, PBMC, isolate Y270-7 (M41W, Y188L, T215N), PBMC); 1.6 ± 0.5 µM in series [1] (Human immunodeficiency virus 1, PBMC, read-out: IC50, μM, Mean ± SE, mean over 20 zidovudine-resistant primary clinical isolates); 2.6 µM in series [1] (Human immunodeficiency virus 1, PBMC, read-out: mean IC50 value, NRTI-resistant isolates with 5 thymidine analog mutations (Group 1 in Table 19)); 0.134 ± 0.0188 µM in series [1] (Human immunodeficiency virus 1, PBMC, read-out: mean IC50 value, isolates with M184V plus multiple thymidine analog mutations (Group 2 in Table 19)); > 10 µM in series [1] (isolate G704-2 (M41L, D67N, K70R, L210W, T215Y), PBMC, listed as zidovudine); > 3.2 µM in series [1] (isolate G910-6 (M41L, D67N, K70R, T215Y, K219Q), PBMC, listed as ZDV(AZT)). Besides, the IC50 in series [1] (isolate G910-6 (M41L, D67N, K70R, T215Y, K219Q), PBMC, listed as zidovudine) was > 10 µM; in series [2] (read-out: IC50, μM(Plaque Assay), Mean ± SE, mean over 9 zidovudine-resistant isolates) it was 3.9 ± 1 µM; in series [2] (read-out: IC50, μM(Plaque Assay), isolate G190-6 (M41L, D67N, K70R, T215Y, K219Q)), 10 µM; in series [2] (read-out: IC50, μM(Plaque Assay), isolate G691-2 (mutations N.D.)) it was 7.8 µM; in series [2] (read-out: IC50, μM(Plaque Assay), isolate G704-2 (M41L, D67N, K70R, L210W, T215Y)) it was 5.7 µM; in series [2] (read-out: IC50, μM(Plaque Assay), isolate G780-1 (M41L, D67N, K70R, T215F, K219Q)), 1.8 µM. The 50% inhibitory concentration (IC50) in series [2] (read-out: IC50, μM(Plaque Assay), isolate G890-1 (K20R, M41L, D67N, T69N, K70R, L210W, T215Y)) stood at 3.6 µM; in series [2] (read-out: IC50, μM(Plaque Assay), isolate H112-2 (no RT mutation, ZDV-sensitive control)) it was 0.015 µM; in series [2] (read-out: IC50, μM(Plaque Assay), isolate J179-1 (M41L, D67N, L210W, T215Y)), 2.6 µM; in series [2] (read-out: IC50, μM(Plaque Assay), isolate M709-1 (L1210W, T215Y)), 3 µM; in series [2] (read-out: IC50, μM(Plaque Assay), isolate Q252-2 (M41L, L210W, T215Y)), 2.8 µM; in series [2] (read-out: IC50, μM(Plaque Assay), isolate U317-8 (M41L, L210W, T215Y)), 2 µM.
Regarding `Cc1cn([C@H]2C=C[C@@H](CO)O2)c(=O)[nH]c1=O` [d4T, 2′,3′-didehydro-2′,3′-dideoxythymidine], in series [3], the “elimination half-life (t1/2) of the administered substance” value stood at 30.3 min.
